Laboratory results taken from US6555710B1, “Aminobenzophenones as inhibitors of IL-1 β and TNF-α” (Leo Pharmaceutical Products Ltd a/s Lovens Kemiske Fabrik …, priority 1999, dated 2003).

How the values were obtained:
Assay type in all cases: cell-based
IL-1β = test: Inhibition of IL-1β secretion in LPS stimulated peripheral blood mononuclear cells (ELISA); details: PBMC; LPS stimulated human peripheral blood mononuclear cells, 18 hours; read-out: The median inhibition concentration (IC50) of IL-1β
Method: (§1) To study the effect of the compound of the present invention in vitro the inhibition of the IL-1β and TNF-α secretion was measured using the following procedure:
(§2) Cytokine production was measured in the media from lipopolysaccharide (LPS) stimulated peripheral blood mononuclear cells. The mononuclear cells were isolated from human peripheral blood by Lymphoprep® (Nycomed, Norway) fractionation and suspended in RPMI 1640 (growth medium) with foetal calv serum (FCS, 2%), at a concentration of 5×10^5 cells/ml. The cells were incubated in 24-well tissue culture plates in 1 ml aliquots. Test compounds were dissolved in dimethylsulfoxide (DMSO, 10 mM) and were diluted with the medium. Compounds were added to the cells for 30 minutes, then LPS ([…] final concentration) was added. The plates were incubated for 18 hours, and the concentration of IL-1β and TNF-α in the medium was determined by enzyme-linked immunosorbent assays. The median inhibitory concentrations (IC50) of the compounds were calculated.

TNF-α = test: Inhibition of TNF-α secretion in LPS stimulated peripheral blood mononuclear cells (ELISA); details: PBMC; LPS stimulated human peripheral blood mononuclear cells, 18 hours; read-out: The median inhibition concentration (IC50) of TNF-α
Method: as §1, §2

[1] = test system: Human polymorphonuclear (PMN) granulocytes; test: Inhibition of PMN superoxide secretion (ferricytochrome C reduction, TNF-α primed, fMLP stimulated); details: read-out: The median inhibition concentration (IC50) of PMN-superoxide
Method: The compounds of the present invention also show similar activities in the ability to inhibit PMN (polymorphonuclear) superoxide secretion which is also indicative of potentially useful anti-inflammatory drugs. The compounds were tested using the following procedure:
Human polymorphonuclear (PMN) granulocytes were isolated from human blood by dextran sedimentation, Lymphoprep® fractionation and hypotonic lysis of contaminating erythrocytes. Superoxide anion generation was measured as the superoxide dismutase inhibitable reduction of ferricytochrome C (Madhu, S. B. et al, Inflammation, 16, 241, (1992)). The cells were suspended in Hanks' balanced salt solution, and incubated for 10 minutes at 37° C. with test compounds. The cells were primed by the addition of TNF-α (3 ng/ml final concentration) for 10 minutes, and then ferricytochrome C, (final concentration 750 μg/ml), bovine serum albumin (BSA, final concentration 1 mg/ml) and formyl-methionyl-leucyl-phenylalanine (fMLP, final concentration 10^−7 M) were added for 3 minutes. The cells were chilled on ice, and were spun down. The optical densities in the cell-free supernatant was measured in a spectrophotometer. The median inhibitory concentration (IC50) of the compounds was calculated.

SMILES | IC50 (IL-1β) | IC50 (TNF-α) | IC50 [1]
Cc1ccccc1C(=O)c1ccc(Nc2ccc(Br)cc2NC(=O)C(F)(F)F)cc1Cl [Compound 101, 2,2,2-Trifluoro-N-[5-bromo-2-[3-chloro-4-(2-methylbenzoyl)-phenylamino]-phenyl]acetamide] | 32 nM | 6.3 nM | 13 nM
Cc1ccccc1C(=O)c1ccc(Nc2ccc(F)cc2NC(=O)C(F)(F)F)cc1Cl [Compound 102, 2,2,2-Trifluoro-N-[2-[3-chloro-4-(2-methylbenzoyl)-phenylamino]-5-fluoro-phenyl]acetamide] | 6.3 nM | 3.2 nM | 25 nM
Cc1ccccc1C(=O)c1ccc(Nc2ccccc2NC(=O)C(F)(F)F)cc1Cl [ref. b), 2,2,2-Trifluoro-N-[2-[3-chloro-4-(2-methylbenzoyl)-phenylamino]-phenyl]acetamide, reference compound] | 20 nM | 4 nM | 13 nM
